# Assay results taken from US20200291018A1, “TAM KINASE INHIBITORS” (SYROS PHARMACEUTICALS, INC., priority 2017, published 2020).
# How the values were obtained:
# FLT3 = target: T1, FLT3 (Homo sapiens, UniProt P36888); assay: TR-FRET kinase activity assay, FLT3; type: biochemical; details: ATP at Km, 60 minutes
# T1 sequence (P36888 27-993): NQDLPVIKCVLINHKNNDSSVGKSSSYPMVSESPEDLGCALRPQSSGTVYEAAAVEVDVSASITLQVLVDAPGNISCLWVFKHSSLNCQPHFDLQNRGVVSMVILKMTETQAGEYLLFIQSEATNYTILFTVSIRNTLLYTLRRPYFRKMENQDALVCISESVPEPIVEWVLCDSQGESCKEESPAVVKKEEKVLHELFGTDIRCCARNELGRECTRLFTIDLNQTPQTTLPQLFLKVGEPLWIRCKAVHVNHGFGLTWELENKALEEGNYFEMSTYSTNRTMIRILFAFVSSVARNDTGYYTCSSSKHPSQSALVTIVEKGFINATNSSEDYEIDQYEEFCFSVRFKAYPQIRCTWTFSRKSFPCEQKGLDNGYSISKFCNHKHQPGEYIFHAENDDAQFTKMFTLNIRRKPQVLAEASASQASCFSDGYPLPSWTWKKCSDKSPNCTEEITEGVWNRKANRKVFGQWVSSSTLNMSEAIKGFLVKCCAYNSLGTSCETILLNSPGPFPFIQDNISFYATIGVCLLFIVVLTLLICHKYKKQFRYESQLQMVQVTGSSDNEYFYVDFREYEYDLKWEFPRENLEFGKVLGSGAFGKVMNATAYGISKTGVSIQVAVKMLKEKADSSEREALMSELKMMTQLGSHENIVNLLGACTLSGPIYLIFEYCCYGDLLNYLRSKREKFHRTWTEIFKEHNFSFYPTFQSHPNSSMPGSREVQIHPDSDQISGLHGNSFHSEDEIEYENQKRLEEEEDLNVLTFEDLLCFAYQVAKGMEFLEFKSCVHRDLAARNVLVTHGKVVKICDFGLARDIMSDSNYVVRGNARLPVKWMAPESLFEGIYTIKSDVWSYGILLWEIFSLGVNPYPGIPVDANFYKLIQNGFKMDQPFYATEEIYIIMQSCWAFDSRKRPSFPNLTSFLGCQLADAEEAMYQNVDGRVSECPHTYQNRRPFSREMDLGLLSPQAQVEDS
# Procedure, shortened: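 Enzyme, fluorescent-labeled peptide substrate and compound were mixed in 50 mM HEPES pH 7.5, 10 mM MgCl2, 1 mM EGTA, 0.01% Brij 35, 1 mM DTT at RT; ATP at each enzyme's Km started the reaction. After 60 min, EDTA quench and Eu-anti-phosphotyrosine-site antibody (30 min, dark); TR-FRET read, IC50 derived.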
# TYRO3 = target: T2, TYRO3 (Homo sapiens, UniProt Q06418); assay: TR-FRET kinase activity assay, TYRO3; type: biochemical; details: ATP at Km, 60 minutes
# T2 sequence (Q06418 41-890): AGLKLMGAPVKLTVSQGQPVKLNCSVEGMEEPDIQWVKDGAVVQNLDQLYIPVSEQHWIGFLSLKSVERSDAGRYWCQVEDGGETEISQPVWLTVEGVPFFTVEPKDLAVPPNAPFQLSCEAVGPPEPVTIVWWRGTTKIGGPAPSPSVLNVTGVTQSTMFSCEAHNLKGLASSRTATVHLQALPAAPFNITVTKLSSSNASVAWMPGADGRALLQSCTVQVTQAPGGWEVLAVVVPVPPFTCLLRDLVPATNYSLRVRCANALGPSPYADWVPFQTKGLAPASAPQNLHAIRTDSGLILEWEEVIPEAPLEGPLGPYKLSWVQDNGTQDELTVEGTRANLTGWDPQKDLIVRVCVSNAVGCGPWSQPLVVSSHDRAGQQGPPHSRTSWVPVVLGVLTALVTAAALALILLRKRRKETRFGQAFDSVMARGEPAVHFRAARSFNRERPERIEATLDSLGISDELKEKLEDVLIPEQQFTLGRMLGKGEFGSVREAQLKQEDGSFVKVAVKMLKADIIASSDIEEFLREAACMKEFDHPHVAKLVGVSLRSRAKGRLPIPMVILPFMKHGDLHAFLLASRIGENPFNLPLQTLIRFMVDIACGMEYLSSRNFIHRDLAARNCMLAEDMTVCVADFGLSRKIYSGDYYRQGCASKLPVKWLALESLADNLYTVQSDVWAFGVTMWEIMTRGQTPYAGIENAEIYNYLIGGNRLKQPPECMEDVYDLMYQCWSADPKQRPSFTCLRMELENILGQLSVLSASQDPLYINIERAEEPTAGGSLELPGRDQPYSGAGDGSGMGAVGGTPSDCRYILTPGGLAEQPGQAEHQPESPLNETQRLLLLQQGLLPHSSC
# Protocol: IC50 values for compound inhibition of AXL, FLT3, MERTK and TYRO3 activity were determined using a TR-FRET activity assay. A peptide substrate with a fluorescent label is phosphorylated on a tyrosine by each enzyme, where the now phosphorylated product is bound by a Europium-labeled antibody specific to that phosphorylation site. The proximity between the antibody and the substrate gives a signal known as TR-FRET. As the enzyme is inhibited by compound, less phosphorylated peptide product is made, causing a decrease in overall signal.
# Activity assays were performed in a 384-well, small volume, black microplates in an active enzyme volume of 10 uL and final developed volume of 20 uL. Final assay conditions are 50 mM HEPES pH 7.5, 10 mM MgCl2, 1 mM EGTA, 0.01% Brij 35 and 1 mM DTT, all at RT. Enzyme, substrate-labeled peptide and compound are mixed, and then the reaction is initiated with the addition of ATP at Km concentration for each enzyme. The reaction is allowed to run 60 minutes and then quenched with a 12.5 mM EDTA (ethylenediamine tetraacetic acid) solution. The plate is then developed with the addition of Europium-labeled antibody for a final volume of 20 uL and is then incubated for 30 minutes in darkness. Plates are read in a PHERASTAR® plate reader. Data are analyzed in GraphPad PRISM.
IC50 (FLT3) [nM],IC50 (TYRO3) [nM],SMILES
1000 to 10000,≤ 100,CCCC(C)Nc1ncc2c(=O)n(C3CCN(C)CC3)cc([C@H]3CC[C@H](O)CC3)c2n1 (some centres unmarked) [Compound 117]
1000 to 10000,100 to 1000,C[C@@H](CCO)Nc1ncc2c(OC3CCOCC3)ncc([C@H]3CC[C@H](O)CC3)c2n1 [Compound 284]
≤ 100,≤ 100,N#Cc1ccc(Nc2ncc3c(OC4CCNCC4)ncc([C@H]4CC[C@H](O)CC4)c3n2)cc1 [Compound 331]
1000 to 10000,100 to 1000,C[C@@H](CC#N)Nc1ncc2c(OC3CCOCC3)ncc([C@H]3CC[C@H](O)CC3)c2n1 [Compound 292]
1000 to 10000,100 to 1000,CC[C@H](C)Nc1ncc2c(OC3CCN(c4ncccn4)CC3)ncc([C@H]3CC[C@H](O)CC3)c2n1 [Compound 306]
1000 to 10000,≤ 100,CC[C@H](C)Nc1ncc2c(O[C@H]3CC[C@@H](N(C)C)C3)ncc([C@H]3CC[C@H](O)CC3)c2n1 [Compound 298]
1000 to 10000,100 to 1000,CC(C)Nc1ncc2c(OC3CCOCC3)ncc(-c3cccc(S(C)(=O)=O)c3)c2n1 [Compound 313]
1000 to 10000,≤ 100,CC(C)CC(C)Nc1ncc2c(=O)n(C3CCNCC3)cc([C@H]3CC[C@H](O)CC3)c2n1 (some centres unmarked) [Compound 119]
1000 to 10000,≤ 100,CCCC(C)Nc1ncc2c(=O)n(C3CCNCC3)cc([C@H]3CC[C@H](O)CC3)c2n1 (some centres unmarked) [Compound 112]
100 to 1000,≤ 100,O=C(O)c1ccc(Nc2ncc3c(OC4CCNCC4)ncc([C@H]4CC[C@H](O)CC4)c3n2)cc1 [Compound 283]
1000 to 10000,100 to 1000,COC[C@H](C)Nc1ncc2c(OC3CCOCC3)ncc([C@H]3CCCN(C)C3)c2n1 [Compound 332]
1000 to 10000,100 to 1000,CNC(=O)Nc1ccc(-c2cnc(OC3CCOCC3)c3cnc(N[C@@H](C)COC)nc23)cc1 [Compound 297]
100 to 1000,100 to 1000,COC[C@H](C)Nc1ncc2c(OC3CCOCC3)ncc(-c3cn[nH]c3)c2n1 [Compound 347]
1000 to 10000,1000 to 10000,COC[C@H](C)Nc1ncc2c(OC3CCOCC3)ncc([C@@H]3CCCN(C)C3)c2n1 [Compound 333]
1000 to 10000,100 to 1000,COC[C@H](C)Nc1ncc2c(O[C@@H]3CCOC3)ncc([C@H]3CC[C@H](O)CC3)c2n1 [Compound 354]
100 to 1000,≤ 100,CCCCNc1cc2c(cn1)c(=O)n(C1CCN(C)CC1)cc2[C@H]1CC[C@H](O)CC1 [Compound 116]
1000 to 10000,100 to 1000,COC[C@H](C)Nc1ncc2c(OC3CCOCC3)ncc(-c3ccc(N)cc3)c2n1 [Compound 309]
1000 to 10000,100 to 1000,COC[C@H](C)Nc1cc2c(cn1)c(OC1CCOCC1)ncc2[C@H]1CC[C@H](O)CC1 [Compound 285]
1000 to 10000,100 to 1000,COC[C@H](C)Nc1ncc2c(OC3CCOCC3)ncc(-c3cccc(C#N)c3)c2n1 [Compound 320]
1000 to 10000,1000 to 10000,COC[C@H](C)Nc1ncc2c(OC3CCOCC3)ncc(C3CCCCN3C)c2n1 (some centres unmarked) [Compound 350]
100 to 1000,100 to 1000,O[C@H]1CC[C@H](c2cnc(OC3CCOCC3)c3cnc(N[C@H]4CCC(F)(F)C4)nc32)CC1 [Compound 336]
100 to 1000,≤ 100,C[C@@H](CC(F)(F)F)Nc1ncc2c(OC3CCOCC3)ncc([C@H]3CC[C@H](O)CC3)c2n1 [Compound 305]
1000 to 10000,100 to 1000,C[C@@H](CF)Nc1ncc2c(OC3CCOCC3)ncc([C@H]3CC[C@H](O)CC3)c2n1 [Compound 304]
1000 to 10000,1000 to 10000,COC[C@H](C)Nc1ncc2c(OC3CCOCC3)ncc([C@@H]3CCCNC3)c2n1 [Compound 327]

SMILES,IC50 (FLT3) [nM],IC50 (TYRO3) [nM]
COC[C@H](C)Nc1ncc2c(OC3C[C@H]4CC[C@@H](C3)N4C)ncc([C@H]3CC[C@H](O)CC3)c2n1 (some centres unmarked) [Compound 343],1000 to 10000,≤ 100
